Assay results taken from US20250186321A1, “FORMULATION USING AMINO ACID AND CARBOXYLIC ACID, ORGANIC SALT, AND COMPOSITION COMPRISING SAME AND USE THEREOF” (MIYOSHI OIL & FAT CO., LTD., priority 2021, published 2025).

Experiment: Appearance of formulation (state at 25° C.)
Assay type: physicochemical
Method: Formulations 1 to 427 shown in Tables 1A to 1D were prepared by the above-described method using the components (A) and (B) at the compounding molar ratios shown in the tables, and their states at 25° C. were observed.

[1] = 25° C., components (A) and (B) at the compounding molar ratio shown
[2] = Tables 1C-1 to 1D, compounding molar ratio (Component (A):Component (B)) 1:1

| state at 25° C. [2] | Compound | state at 25° C. [1] |
| --- | --- | --- |
| – | CCCCCCCC/C=C\CCCCCCCC(=O)O.NCC(=O)O [Formulation 133] | Solid |
| – | CC(=O)O.N[C@@H](CO)C(=O)O [Formulation 239] | Solid |
| – | CC(C)[C@H](N)C(=O)O.O=C(O)C(O)C(O)C(=O)O (centres unmarked) [Formulation 200] | Solid |
| – | N[C@@H](CO)C(=O)O.O=C(O)CCCCC(=O)O [Formulation 245] | Solid |
| Solid | CC(O)C(=O)O.N[C@@H](CS)C(=O)O [Formulation 312] | – |
| Solid | CCCC(=O)O.N[C@@H](Cc1ccccc1)C(=O)O [Formulation 364] | – |
| – | NCCCC[C@H](N)C(=O)O.O=C(O)CCC(=O)O.O=C(O)CCC(=O)O [Formulation 33] | Solid |
| Solid | O=C(O)CCC(=O)O.O=C(O)[C@@H]1CCCN1 [Formulation 351] | – |
| – | N[C@@H](Cc1c[nH]cn1)C(=O)O.O=C(O)C=Cc1ccccc1 [Formulation 103] | Solid |
| – | N[C@@H](Cc1c[nH]cn1)C(=O)O.O=C(O)/C=C/C(=O)O [Formulation 98] | Solid |
| – | C[C@@H](O)[C@H](N)C(=O)O.O=C(O)CCC(=O)O [Formulation 263] | Solid |
| – | CCCC(=O)O.C[C@H](N)C(=O)O [Formulation 151] | Solid |
| – | N=C(N)NCCC[C@H](N)C(=O)O.N[C@@H](CCC(=O)O)C(=O)O [Formulation 55] | Solid |
| – | C[C@H](N)C(=O)O.N[C@@H](CCC(=O)O)C(=O)O [Formulation 159] | Solid |
| Solid | NC(CC(=O)O)C(=O)O.O=C(O)CC(O)C(=O)O (centres unmarked) [Formulation 405] | – |
| – | CCC(=O)O.CC[C@H](C)[C@H](N)C(=O)O [Formulation 223] | Solid |
| – | N[C@@H](Cc1c[nH]cn1)C(=O)O.O=C1O[C@H]([C@@H](O)CO)C(O)=C1O [Formulation 104] | Solid |
| – | CC(O)C(=O)O.CC[C@H](C)[C@H](N)C(=O)O [Formulation 227] | Solid |
| – | NCC(=O)O.N[C@@H](CCC(=O)O)C(=O)O [Formulation 139] | Solid |
| – | CCCC(=O)O.CCCC(=O)O.N=C(N)NCCC[C@H](N)C(=O)O [Formulation 68] | Solid |
| Solid | NC(CCC(=O)O)C(=O)O.O=C1OC(C(O)CO)C(O)=C1O (centres unmarked) [Formulation 427] | – |
| – | NCCCC(=O)O.O=C1O[C@H]([C@@H](O)CO)C(O)=C1O [Formulation 185] | Solid |
| Solid | N[C@@H](Cc1ccccc1)C(=O)O.O=C(O)C(O)C(O)C(=O)O [Formulation 373] | – |
| – | C[C@@H](O)[C@H](N)C(=O)O.O=C(O)/C=C/C(=O)O [Formulation 265] | Solid |
| Solid | CSCC[C@H](N)C(=O)O.O=C(O)/C=C/C(=O)O [Formulation 333] | – |
| – | NCCCC[C@H](N)C(=O)O.O=C(O)c1ccccc1 [Formulation 18] | Solid |

| state at 25° C. [2] | Compound | state at 25° C. [1] |
| --- | --- | --- |
| – | C[C@H](N)C(=O)O.O=C(O)C(O)C(O)C(=O)O (centres unmarked) [Formulation 163] | Solid |
| – | CC(=O)O.CC(=O)O.N=C(N)NCCC[C@H](N)C(=O)O [Formulation 65] | Solid |
| – | CCCC(=O)O.N[C@@H](Cc1c[nH]cn1)C(=O)O [Formulation 89] | Solid |
| Solid | N[C@@H](CS)C(=O)O.O=C(O)CCC(=O)O [Formulation 314] | – |
| – | CCCC(=O)O.CCCC(=O)O.NCCCC[C@H](N)C(=O)O [Formulation 26] | Solid |
| Solid | CSCC[C@H](N)C(=O)O.O=C(O)CC(O)(CC(=O)O)C(=O)O [Formulation 335] | – |
| Solid | N[C@@H](CC(=O)O)C(=O)O.O=C1O[C@H]([C@H](O)CO)C(O)=C1O [Formulation 410] | – |
| – | CC(C)[C@H](N)C(=O)O.O=C(O)/C=C/C(=O)O [Formulation 197] | Solid |
| – | CCCC(=O)O.NCC(=O)O [Formulation 131] | Solid |
| – | CC(C)[C@H](N)C(=O)O.O=C1O[C@H]([C@H](O)CO)C(O)=C1O [Formulation 203] | Solid |
| Solid | NC(CCC(=O)O)C(=O)O.O=C(O)CC(O)C(=O)O (centres unmarked) [Formulation 422] | – |
| – | N[C@@H](Cc1c[nH]cn1)C(=O)O.O=C1O[C@H]([C@@H](O)CO)C(O)=C1O.O=C1O[C@H]([C@@H](O)CO)C(O)=C1O [Formulation 125] | Solid |
| Solid | CSCC[C@H](N)C(=O)O.O=C(O)C(O)C(O)C(=O)O (centres unmarked) [Formulation 336] | – |
| Solid | N[C@@H](Cc1ccccc1)C(=O)O.O=C(O)CCCCC(=O)O [Formulation 367] | – |
| – | C[C@@H](O)[C@H](N)C(=O)O.O=C(O)c1ccccc1 [Formulation 269] | Solid |
| – | N=C(N)NCCC[C@H](N)C(=O)O.N[C@@H](CCC(=O)O)C(=O)O.N[C@@H](CCC(=O)O)C(=O)O [Formulation 76] | Solid |
| Solid | N[C@@H](CC(=O)O)C(=O)O.O=C(O)CCCCC(=O)O [Formulation 401] | – |
| – | CC(=O)O.N[C@@H](Cc1c[nH]cn1)C(=O)O [Formulation 86] | Solid |
| – | CC[C@H](C)[C@H](N)C(=O)O.O=C(O)c1ccccc1 [Formulation 235] | Solid |
| Solid | N[C@@H](Cc1ccccc1)C(=O)O.O=C(O)CC(O)(CC(=O)O)C(=O)O [Formulation 372] | – |
| Solid | CSCC[C@H](N)C(=O)O.O=CO [Formulation 323] | – |
| – | N=C(N)NCCC[C@H](N)C(=O)O.O=C(O)/C=C/C(=O)O [Formulation 56] | Solid |
| – | C[C@@H](O)[C@H](N)C(=O)O.O=CO [Formulation 255] | Solid |
| – | C[C@@H](O)[C@H](N)C(=O)O.O=C(O)C[C@H](O)C(=O)O [Formulation 266] | Solid |
| – | CCCC(=O)O.N=C(N)NCCC[C@H](N)C(=O)O [Formulation 47] | Solid |

| Compound | state at 25° C. [2] | state at 25° C. [1] |
| --- | --- | --- |
| N[C@@H](Cc1c[nH]c2ccccc12)C(=O)O.O=C(O)CCC(=O)O [Formulation 385] | Solid | – |
| N[C@@H](CCC(=O)O)C(=O)O.O=CO [Formulation 411] | Solid | – |
| NCCCC[C@H](N)C(=O)O.N[C@@H](CCC(=O)O)C(=O)O.N[C@@H](CCC(=O)O)C(=O)O [Formulation 34] | Solid | Solid |
| N[C@@H](CCC(=O)O)C(=O)O.O=C(O)C(O)C(O)C(O)C(O)CO (centres unmarked) [Formulation 416] | Solid | – |
| CCCC(=O)O.N[C@@H](CCC(=O)O)C(=O)O [Formulation 415] | Solid | – |
| N[C@@H](CCC(=O)O)C(=O)O.O=C(O)c1ccccc1 [Formulation 425] | Solid | – |
| N[C@@H](Cc1c[nH]c2ccccc12)C(=O)O.O=C(O)CCCCC(=O)O [Formulation 384] | Solid | – |
| CCCCCC(=O)O.N[C@@H](CCC(=O)O)C(=O)O [Formulation 414] | Solid | – |
| N[C@@H](CCC(=O)O)C(=O)O.O=C1O[C@H]([C@@H](O)CO)C(O)=C1O [Formulation 426] | Solid | – |
| CCCC(=O)O.N[C@@H](Cc1c[nH]c2ccccc12)C(=O)O [Formulation 381] | Solid | – |
